The subject of one assay is HT29 cells. The assay is described as follows: Inhibitory effect of compounds on HT29 cell proliferation. The assay is classed as cell-based, Human. The conditions noted are these: read-out: IC50, inhibitory activity on HT29 cell proliferation. On the procedure:
(1) Cell plating: First, tumor cells HT29 were cultured in corresponding medium, then digested with trypsin, centrifuged, resuspended, and counted, and the cells were adjusted to an appropriate concentration for plating.
(§1) Co-incubation of the compound of the present disclosure and tumor cells: after the cells adhered to the wall, the medium was removed, and the diluted bioactive molecule (the compound of the present disclosure) was added to the wells of the above plate, and incubated for 72 h.
(§2) In vitro cell viability detection: After the incubation, 50 μL of Cell Counting-Lite™ 2.0 reagent (Vazyme/Novazyme) was added to each well, shaken and mixed well in the dark, reacted for 10 minutes, and then the detection was carried out with a microplate reader (manufacturer: BMG, Model: PHERAStar-FS) for reading. The background RLU was obtained by using cell-free medium (with Cell Counting-Lite™), and the vehicle RLU was obtained by using cell-containing medium (with Cell Counting-Lite™). Cell inhibition rate=1−(sample RLU−background RLU)/(solvent RLU−background RLU)×100%. According to the four-parameter model fitting curve, the half maximal inhibitory concentration (IC50) of the compound was calculated, and the detection results were shown in Table 2.

The subject of a further assay is NCI-N87 cells. The experiment in a line: Inhibitory effect of compounds on NCI-N87 cell proliferation. The assay is classed as cell-based, Human. On the procedure:
(1) Cell plating: First, tumor cells NCI-N87 were cultured in corresponding medium, then digested with trypsin, centrifuged, resuspended, and counted, and the cells were adjusted to an appropriate concentration for plating.
as §1
as §2, with “Table 12.” for “Table 2.”

A further assay relates to HCC1806 cells. The assay is described as follows: Inhibitory effect of compounds on HCC1806 cell proliferation. It counts as cell-based, Human. The protocol: (1) Cell plating: First, tumor cells HCC1806 were cultured in corresponding medium, then digested with trypsin, centrifuged, resuspended, and counted, and the cells were adjusted to an appropriate concentration for plating.
as §1
as §2, with “Table 6.” for “Table 2.”

The test system of a further assay is NCI-H358 cells. The assay is described as follows: Inhibitory effect of compounds on NCI-H358 cell proliferation. It counts as cell-based, Human. The protocol:
(1) Cell plating: First, tumor cells NCI-H358 were cultured in corresponding medium, then digested with trypsin, centrifuged, resuspended, and counted, and the cells were adjusted to an appropriate concentration for plating.
as §1
as §2, with “Table 10.” for “Table 2.”

In a further assay the test system is MDA-MB-453 cells. The experiment in a line: Inhibitory effect of compounds on MDA-MB-453 cell proliferation. The assay is classed as cell-based. The conditions noted are these: MDA-MB-453 human breast cancer cells, 72 h incubation, Cell Counting-Lite 2.0. The protocol:
(1) Cell plating: First, tumor cells MDA-MB-453 were cultured in corresponding medium, then digested with trypsin, centrifuged, resuspended, and counted, and the cells were adjusted to an appropriate concentration for plating.
as §1
as §2, with “Table 22.” for “Table 2.”

The mark [1] stands for this setting: Homo sapiens, NCI-N87, 72 h, read-out: IC50, inhibitory activity on NCI-N87 cell proliferation, NCI-N87 human gastric cancer cells, 72 h incubation, Cell Counting-Lite 2.0.
[2] abbreviates: read-out: IC50, inhibitory activity on HCC1806 cell proliferation, HCC1806 human breast squamous carcinoma cells, 72 h incubation, Cell Counting-Lite 2.0.
The mark [3] stands for this setting: Homo sapiens, NCI-H358, 72 h, read-out: IC50, inhibitory activity on NCI-H358 cell proliferation, NCI-H358 human non-small cell lung cancer cells, 72 h incubation, Cell Counting-Lite 2.0.
The mark [4] stands for this setting: read-out: IC50, inhibitory activity on NCI-N87 cell proliferation, NCI-N87 human gastric cancer cells, 72 h incubation, Cell Counting-Lite 2.0.
The mark [5] stands for this setting: read-out: IC50, inhibitory activity on NCI-H358 cell proliferation, NCI-H358 human non-small cell lung cancer cells, 72 h incubation, Cell Counting-Lite 2.0.

Read-outs that look alike come from different tables or passages of the source.

As to `CC[C@@]1(O)C(=O)OCc2c1cc1n(c2=O)Cc2c-1nc1cc(F)c(Cl)c3c1c2[C@@H](N)CC3` (single isomer, unassigned) [Example 8 (3-1-A)], the IC50 with HT29 cells (Homo sapiens, HT-29, 72 h) was 0.16 nM; in the assay with NCI-N87 cells (setting [1]) it was 0.37 nM.

As to `CC[C@@]1(O)C(=O)OCc2c1cc1n(c2=O)Cc2c-1nc1cc(F)c(Cl)c3c1c2[C@H](N)CC3` (single isomer, unassigned) [Example 8 (3-1-B)], the IC50 with HT29 cells (Homo sapiens, HT-29, 72 h) turned out to be 0.71 nM; in the assay with NCI-N87 cells (setting [1]) it was 1.34 nM.

Take `CC[C@@]1(O)C(=O)OCc2c1cc1n(c2=O)Cc2c-1nc1cc(F)c(C)c3c1c2[C@@](C)(NC(=O)C1(O)CC1)CC3` (single isomer, unassigned) [Example 14 (5-16-A)]: the IC50 with HT29 cells (Homo sapiens, HT-29, 72 h) came out at 3.87 nM.

As to `CC[C@@]1(O)C(=O)OCc2c1cc1n(c2=O)Cc2c-1nc1cc(F)c(Cl)c3c1c2C(NC(=O)C(O)C1CC1)CC3` (single isomer, unassigned) [Example 16 (3-12-A)], the IC50 in the assay on HCC1806 cells (setting [2]) was 0.16 nM; in the assay with NCI-H358 cells (setting [3]), 15.4 nM; with NCI-N87 cells (setting [4]), 0.44 nM; with MDA-MB-453 cells, 0.47 nM.

With `CC[C@@]1(O)C(=O)OCc2c1cc1n(c2=O)Cc2c-1nc1cc(F)c(Cl)c3c1c2C(NC(=O)C(O)C1CC1)CC3` (single isomer, unassigned) [Example 16 (3-12-B)], the IC50 amounted to 1.76 nM in the assay with HCC1806 cells (setting [2]), 19.8 nM with NCI-H358 cells (setting [5]), 3.45 nM in the assay with NCI-N87 cells (setting [4]) and 4.32 nM in the assay on MDA-MB-453 cells.

On to `CC[C@@]1(O)C(=O)OCc2c1cc1n(c2=O)Cc2c-1nc1cc(F)c(Cl)c3c1c2C(NC(=O)C(O)C1CC1)CC3` (single isomer, unassigned) [Example 16 (3-12-C)], for which the IC50 with HCC1806 cells (setting [2]) came to 1.91 nM; with NCI-H358 cells (setting [5]), 28.3 nM; in the assay with NCI-N87 cells (setting [4]) it was 3.99 nM; with MDA-MB-453 cells it was 5.52 nM.

Regarding `CC[C@@]1(O)C(=O)OCc2c1cc1n(c2=O)Cc2c-1nc1cc(F)c(Cl)c3c1c2C(NC(=O)C(O)C1CC1)CC3` (single isomer, unassigned) [Example 16 (3-12-D)], the IC50 in the assay with HCC1806 cells (setting [2]) was 1.53 nM; in the assay with NCI-H358 cells (setting [5]), 20.8 nM; with NCI-N87 cells (setting [4]) it was 3.03 nM; in the assay with MDA-MB-453 cells, 3.98 nM.

Turning to `CC[C@@]1(O)C(=O)OCc2c1cc1n(c2=O)Cc2c-1nc1cc(F)c(Cl)c3c1c2[C@@H](NC[C@H](C)O)CC3` (single isomer, unassigned) [Example 17 (3-7-A)], the IC50 in the assay with NCI-H358 cells (setting [3]) came to 49.4 nM; in the assay with NCI-N87 cells (setting [1]), 5.32 nM; with MDA-MB-453 cells (Homo sapiens, MDA-MB-453, 72 h) it was 6.23 nM.

For `CC[C@@]1(O)C(=O)OCc2c1cc1n(c2=O)Cc2c-1nc1cc(F)c(Cl)c3c1c2[C@H](NC[C@@H](C)O)CC3` (single isomer, unassigned) [Example 25 (3-26-B)], the IC50 in the assay on HCC1806 cells (Homo sapiens, HCC1806, 72 h, read-out: IC50, inhibitory activity on HCC1806 cell proliferation, HCC1806 human breast squamous carcinoma cells, 72 h incubation, Cell Counting-Lite 2.0) was determined as 4.93 nM; in the assay on NCI-N87 cells (setting [1]), 25.3 nM.

In the case of `CC[C@@]1(O)C(=O)OCc2c1cc1n(c2=O)Cc2c-1nc1cc(Cl)c(C)c3c1c2[C@H](NC(=O)CO)CC3` [Example 3 (2-2-B), N-((1R,9S)-5-chloro-9-ethyl-9-hydroxy-4-methyl-10,13-dioxo-2,3,9,10,13,15-hexahydro-1H,12H-benzo[de]pyrano[3′,4′:6,7]indolizino[1,2-b]quinolin-1-yl)-2-hydroxyacetamide], the IC50 with HT29 cells (Homo sapiens, HT-29, 72 h) stood at 7.52 nM.

As to `CC[C@@]1(O)C(=O)OCc2c1cc1n(c2=O)Cc2c-1nc1cc(Cl)c(C)c3c1c2[C@H](NC(=O)[C@H](O)C1CC1)CC3` [Example 5 (2-12-D), (2R)—N-((1R,9S)-5-chloro-9-ethyl-9-hydroxy-4-methyl-10,13-dioxo-2,3,9,10,13,15-hexahydro-1H,12H-benzo[de]pyrano[3′,4′:6,7]indolizino[1,2-b]quinolin-1-yl)-2-cyclopropyl-2-hydroxyacetamide], the IC50 in the assay on HT29 cells (Homo sapiens, HT-29, 72 h) worked out at 3.29 nM.

For the compound `CC[C@@]1(O)C(=O)OCc2c1cc1n(c2=O)Cc2c-1nc1cc(Cl)c(C)c3c1c2[C@@H](NCC(C)(C)O)CC3` [Example 6 (2-17-A), N-((1S,9S)-5-chloro-9-ethyl-9-hydroxy-4-methyl-10,13-dioxo-2,3,9,10,13,15-hexahydro-1H,12H-benzo[de]pyrano[3′,4′:6,7]indolizino[1,2-b]quinolin-1-yl)-2-hydroxy-2-methylpropylamine], the IC50 in the assay with HT29 cells (Homo sapiens, HT-29, 72 h) was found to be 1.24 nM.

As for `CC[C@@]1(O)C(=O)OCc2c1cc1n(c2=O)Cc2c-1nc1cc(Cl)c(C)c3c1c2[C@H](NCC(C)(C)O)CC3` [Example 6 (2-17-B), N-((1R,9S)-5-chloro-9-ethyl-9-hydroxy-4-methyl-10,13-dioxo-2,3,9,10,13,15-hexahydro-1H, 12H-benzo[de]pyrano[3′,4′:6,7]indolizino[1,2-b]quinolin-1-yl)-2-hydroxy-2-methylpropylamine], in the assay on HT29 cells (Homo sapiens, HT-29, 72 h), the IC50 came out at 1.59 nM.

Regarding `CC[C@@]1(O)C(=O)OCc2c1cc1n(c2=O)Cc2c-1nc1cc(F)c(C)cc1c2CCN(C(=O)CO)C(C)C` [Example 10 (4-12), (S)—N-(2-(4-ethyl-8-fluoro-4-hydroxy-9-methyl-3,14-dioxo-3,4,12,14-tetrahydro-1H-pyrano[3′,4′:6,7]indolizino[1,2-b]quinolin-11-yl)ethyl)-2-hydroxy-N-isopropylacetamide], the IC50 in the assay on HT29 cells (HT-29, HT29 human colon cancer cells, 72 h incubation, Cell Counting-Lite 2.0) turned out to be 4.79 nM.

Take `CC[C@@]1(O)C(=O)OCc2c1cc1n(c2=O)Cc2c-1nc1cc(Cl)c(C)c3c1c2[C@H](NC[C@@H](C)O)CC3` [Example 24 (2-27-B), (2R)—N-((1R,9S)-5-chloro-9-ethyl-9-hydroxy-4-methyl-10,13-dioxo-2,3,9,10,13,15-hexahydro-1H,12H-benzo[de]pyrano[3′,4:6,7]indolizino[1,2-b]quinolin-1-yl)-2-hydroxypropylamine]: the IC50 in the assay with HCC1806 cells (HCC1806 human breast squamous carcinoma cells, 72 h incubation, Cell Counting-Lite 2.0, read-out: IC50, inhibitory activity on HCC1806 cell proliferation) was determined as 3.93 nM; in the assay on NCI-H358 cells (NCI-H358 human non-small cell lung cancer cells, 72 h incubation, Cell Counting-Lite 2.0, read-out: IC50, inhibitory activity on NCI-H358 cell proliferation), 69.1 nM; in the assay on NCI-N87 cells (NCI-N87 human gastric cancer cells, 72 h incubation, Cell Counting-Lite 2.0, read-out: IC50, inhibitory activity on NCI-N87 cell proliferation), 14.7 nM.

Source of the values: patent US20250346606A1, “CAMPTOTHECIN COMPOUND, PREPARATION METHOD THEREFOR, AND APPLICATION THEREOF” (SICHUAN KELUN-BIOTECH BIOPHARMACEUTICAL CO., LTD., priority 2021, published 2025).
